Source: ChEMBL document CHEMBL1158777, “Petrosamine B, an inhibitor of the Helicobacter pylori enzyme aspartyl semialdehyde dehydrogenase from the Australian sponge Oceanapia sp” (J Nat Prod, 2005)

Biological target: T1, Aspartate-semialdehyde dehydrogenase (Helicobacter pylori (strain ATCC 700392 / 26695) (Campylobacterpylori), UniProt O25801)
T1 sequence (O25801 whole entry): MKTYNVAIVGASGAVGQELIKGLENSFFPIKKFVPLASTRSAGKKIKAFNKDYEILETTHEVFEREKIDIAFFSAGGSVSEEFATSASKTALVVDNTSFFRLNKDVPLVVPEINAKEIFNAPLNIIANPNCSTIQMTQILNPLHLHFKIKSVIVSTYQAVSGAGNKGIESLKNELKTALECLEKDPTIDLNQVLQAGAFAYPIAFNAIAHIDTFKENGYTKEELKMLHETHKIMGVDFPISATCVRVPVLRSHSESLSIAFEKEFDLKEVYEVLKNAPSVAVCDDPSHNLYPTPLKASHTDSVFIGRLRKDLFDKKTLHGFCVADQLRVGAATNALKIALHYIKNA
Experiment: Inhibition of Helicobacter pylori His-tagged ASD assessed as inhibition of phosphorylation of aspartate semialdehyde

| IC50 [µM] | Structure (SMILES) |
| --- | --- |
| 306 | C[n+]1ccc2c(c1)c(O)c1c3c(c4cc(Br)ccc4nc32)C(=O)C[N+]1(C)C [PETROSAMINE B] |
| 0.18 | N[C@@H](CSS(=O)(=O)O)C(=O)O |
